# In EPA's ToxValDB 9.5:
# Where “and” joins values, the source holds several entries; their conditions need not be identical. Equal values may be shown once.
# Tests used:
# [1] = system: Canidae; conditions: oral, Dog Other
# [2] = system: Rattus norvegicus; conditions: for NOEL: duration: 10 days, Sprague-Dawley; for LEL: uterotrophic, Active
# [3] = system: Rattus norvegicus; conditions: oral; for NOEL: gavage, M/F
# [4] = system: Rattus norvegicus; conditions: chronic, duration: 2 years, oral, diet, M/F
# [5] = system: Mus musculus
# [6] = system: Oryctolagus sp.; conditions: chronic; duration: 4 months; inhalation
# [7] = system: Rattus norvegicus
# [8] = chronic, duration: 1 years, diet, M/F, tremors
# [9] = chronic, duration: 1 years, diet, M/F, hypertrophy of adrenal cortex (both sexes) hematological effects (males)
# [10] = chronic, duration: 26 weeks, diet, M/F, increased organ weight
# [11] = subchronic, M, increased sgot and sgpt levels
# [12] = Hershberger, oral, gavage, inactive + Negative + Negative + neither + negative
# [13] = chronic, duration: 2 years, diet, M/F, liver and kidney effects, reduced body weight, mortality
# [14] = chronic, duration: 1 years, diet, M/F, chronic pneumonitis
# [15] = chronic, duration: 4 months, inhalation
# [16] = chronic, duration: 106 weeks, diet, M/F, liver and kidney degeneration and bone marrow atrophy
# [17] = reduced body weight gain, erythrocyte count and hemoglobin level
# [18] = subchronic, duration: 13 weeks, oral, diet, ICR
# [19] = subchronic, duration: 13 weeks, oral, diet, Wistar
smiles,measurement,setting,value
CC1(C)C(C(=O)OC(C#N)c2cccc(Oc3ccccc3)c2)C1(C)C (centres undefined) [Fenpropathrin],LOAEL,[1]; [8],6.25 mg/kg-day
same,NOAEL,[1]; [8],2.5 mg/kg-day
COP(=S)(OC)Oc1ccc(SC)c(C)c1 [Fenthion],LOEL,"[2]; Hershberger, duration: 7 days, oral, gavage, Fischer 344, active + Antiandrogenic + anti-androgenic",25 mg/kg-day
C[C@H]1[C@H](c2ccc(Cl)cc2)SC(=O)N1C(=O)NC1CCCCC1 [Hexythiazox],LEL,[1]; [9],12.5 mg/kg-day
same,NOEL,[1]; [9],2.5 mg/kg-day
CC1(C)CN=C(NN=C(C=Cc2ccc(C(F)(F)F)cc2)C=Cc2ccc(C(F)(F)F)cc2)NC1 [Hydramethylnon],LEL,[1]; [10],1 mg/kg-day
same,NOEL,[1]; [10],0.33 mg/kg-day
C=C(C)C#N [Methacrylonitrile],NOEL,"[3]; subchronic, Fischer 344, Deaths + Clinical Observation: Lethargy Lacrimation, tremors Convulsions Ataxia Abnormalbreathing + Body Weight Changes: decrease + …",< 7.5 mg/kg-day
same,LOAEL,[1]; [11],24 mg/m3
same,NOAEL,[1]; [11],9 mg/m3
CSc1nnc(C(C)(C)C)c(=O)n1N [Metribuzin],NOEL,[2]; [12],120 mg/kg-day
same,LEL,[1]; [13],37.5 mg/kg-day
same,NOEL,[1]; [13],2.5 mg/kg-day
CCCCC(C#N)(Cn1cncn1)c1ccc(Cl)cc1 (centres undefined) [Myclobutanil],NOEL,"[2]; Hershberger, oral, gavage, inactive + Negative + Negative + anti-androgenic + decrease in AST wt at 200 and serum testosterone 49% / increase in PPS at 400 and serum …",50 mg/kg-day
same,LEL,[4]; testicular atrophy,9.84 mg/kg-day
same,NOEL,[4]; testicular atrophy,2.49 mg/kg-day
C[n+]1ccc(-c2cc[n+](C)cc2)cc1 [Paraquat],LEL,[1]; [14],0.93 mg/kg-day
same,NOEL,[1]; [14],0.45 mg/kg-day
C1CCNCC1 [Piperidine],LD50,"[5]; acute, oral, DD",536 mg/kg and 633 mg/kg
same,LOAEL,[6],0.01 mg/L
same,NOAEL,[6],0.002 mg/L
same,LC50,"[7]; acute, inhalation",> 6970 mg/m3
same,LOAEL,[7]; [15],0.01 mg/L
same,NOAEL,[7]; [15],0.002 mg/L
same,NOAEL (% diet),"[7]; chronic, duration: 50 weeks, oral, drinking water, Sprague-Dawley",0.09
CSc1nc(NC(C)C)nc(NC(C)C)n1 [Prometryn],LEL,[1]; [16],37.5 mg/kg-day
same,NOEL,[1]; [16],3.75 mg/kg-day
CCCOC(=O)c1ccc(O)cc1 [Propylparaben],LEL,"[2]; duration: 3 days, injection, subcutaneous",65 mg/kg-day
CC(C)(C)C(=O)C(Oc1ccc(Cl)cc1)n1cncn1 (centres undefined) [Triadimefon],NOEL,"[2]; Hershberger, oral, gavage, inactive + Negative + Negative + both + decreased AGD, delayed PPS, decreased AST wt / inhibits CYP17 / increases liver wt 37% and …",25 mg/kg-day
same,LEL,[4]; [17],25 mg/kg-day
same,NOEL,[4]; [17],2.5 mg/kg-day
CCC[CH2][Sn]([Cl])([CH2]CCC)[CH2]CCC [Tributyltin chloride],NOAEL,"[3]; short-term, duration: 28 days, diet, M, Wistar, Body Weight Changes: Weight gain decrease + Food Consumption: decrease + Absolute Organ Weight: Thymus decrease + Relative Organ Weight: …",5 ppm
same,LEL,"[2]; duration: 0 days, oral, diet",125 ppm
NC(CO)(CO)CO [Tromethamine],LD50,"[5]; acute, dermal",> 1000 mg/kg
same,LD50,"[5]; acute, injection, Intraperitoneal",3350 mg/kg
same,LD50,"[5]; acute, injection, intravenous",6100 mg/kg
same,LD50,"[5]; acute, oral, gavage, Swiss",> 3000 mg/kg
same,LD50,"[7]; acute, dermal",> 1000 mg/kg
same,LD50,"[7]; acute, injection, intravenous",6000 mg/kg
same,LD50,"[7]; acute, oral, gavage, Wistar",> 3000 mg/kg
same,NOAEL,"[7]; reproduction developmental, duration: 29 days, oral, gavage, Crl:CD(SD), generation: F0",1000 mg/kg-day
same,NOAEL,"[7]; reproduction developmental, duration: 29 days, oral, gavage, Crl:CD(SD), generation: F1",1000 mg/kg-day
same,NOAEL,"[7]; reproduction developmental, duration: 29 days, oral, gavage, generation: F0",1000 mg/kg-day
same,NOAEL,"[7]; reproduction developmental, duration: 29 days, oral, gavage, generation: F1",1000 mg/kg-day
same,NOAEL,"[7]; short-term, duration: 20 days, injection, intravenous, Sprague-Dawley",500 mg/kg-day
C=CF [Vinyl fluoride],LC50,"[5]; acute, inhalation",1.3e+06 mg/m3
same,LOAEL,"[5]; subchronic, duration: 90 days, inhalation, Crl:CD-1 (ICR) BR",377 mg/m3
same,LOAEL,"[7]; subchronic, duration: 90 days, inhalation, Crl:CDABR",377 mg/m3
COP(=O)(OC)O/C(=C\Cl)c1cc(Cl)c(Cl)cc1Cl [Z-Tetrachlorvinphos],NOEL,"[3]; short-term, duration: 28 days, Wistar, Deaths + Clinical Observation: Soiled perineal region + Body Weight Changes: decrease + Blood Chemistry: AST decrease, gamma-GTP increase, …",< 10 mg/kg-day
same,NOEL,"[3]; short-term, duration: 28 days, Wistar, Deaths + Clinical Observation: Soiled perineal region + Body Weight Changes: decrease + Hematology: RBC decrease, HGB decrease, HCT decrease…",< 10 mg/kg-day
same,NOEL,[2]; [12],350 mg/kg-day
[Cl][Zn][Cl] [Zinc chloride],LD50,"[5]; acute, oral, gavage, Swiss",1260 mg/kg and 605 mg/kg
same,NOAEL,"[5]; developmental, duration: 18 days, injection, Intraperitoneal, CF1",12.5 mg/kg-day
same,NOAEL,"[5]; reproduction developmental, duration: 18 days, injection, Intraperitoneal, F, CF1",12.5 mg/kg-day
same,LOAEL,[5]; [18],5910 mg/kg-day
same,NOAEL,[5]; [18],591 mg/kg-day
same,LOAEL,"[7]; short-term, duration: 4 weeks, oral, drinking water, Wistar",12 mg/kg-day
same,LOAEL,[7]; [19],2880 mg/kg-day
same,NOAEL,[7]; [19],288 mg/kg-day
